How the values were obtained:
[1] = test system: TNF-α, IL-1β, IL-6, IL-17A, IFN-γ and IL-8 in sole tissue, CII-induced RA; test: Inflammatory markers in sole tissue (ELISA), collagen-induced RA; type: in vivo, DBA/1 mice; details: mouse sole tissue
Description: 2 mg/mL of a Chick type II collagen (CII) solution (Chondrex Inc., Cat. No. 20012) (in 10 mM acetic acid) was mixed with complete Freund's adjuvant (Sigma Aldrich, Cat. No. F5881-10ML) at a ratio of 1:1 (v/v), so as to obtain a first CII emulsion. 2 mg/mL of a Chick type CII solution was mixed with incomplete Freund's adjuvant (ChemCruzx, Cat. No. sc-24648) at a ratio of 1:1 (v/v), so as to obtain a second CII emulsion.
The female DBA/1 mice were divided into five groups, including one normal control group, one pathological control group, one comparative group, and two experimental groups (i.e., experimental groups 1 to 2) (n=6 mice in each group). 200 μL of the first CII emulsion was injected subcutaneously into the tail of the respective mouse of the pathological control group, the comparative group, and the two experimental groups. The mice were subjected to a boost injection using 200 μL of the second CII emulsion on the 21st day after the initial immunization, so as to induce the occurrence of RA. In addition, the rats of the normal control group were injected with an adjuvant solution (in PBS).
After completion of the boost injection, the respective mouse in the comparative group was intraperitoneally injected with 100 μL of 1% HA, the respective mouse in the experimental group 1 was intraperitoneally injected with 100 μL of the EGF solution (containing 20 μg/g EGF) prepared in section C of Example 1, the respective mouse in the experimental group 2 was intraperitoneally injected with 100 μL of the mixture solution (containing 20 μg/g EGF) prepared in section C of Example 1. Each mouse was administered once daily for a total period of 20 days.
After completion of the evaluation of RA severity as described in section C of this example, the mice in each group were sacrificed by virtue of 95% CO2 asphyxiation, and the knee joint tissue of the hind leg and the sole tissue were obtained from each mouse carcass. The knee joint tissue of the hind leg of each mouse was subjected to histological sectioning, hematoxylin-eosin staining, and microscopic observation in sequence according to the methods described in section F of Example 1.
100 mg of the sole tissue of each mouse obtained in section D of this example was subjected to a freezing treatment with liquid nitrogen, followed by grinding. The resultant ground tissue was mixed with 1 mL of a tissue lysis buffer (Gold Biotechnology, Inc., Cat. No. GB-181-100) (containing protease inhibitor cocktail), followed by determining the contents of TNF-α, IL-1β, IL-6, IL-17A, IFN-γ, and IL-8 respectively using a TNF-α ELISA kit (BioLegend, Cat. No. 430904), an IL-1β ELISA kit (BioLegend, Cat. No. 432604), an IL-6 ELISA kit (BioLegend, Cat. No. 431304), an IL-17A ELISA kit (BioLegend, Cat. No. 432504), an IFN-γ ELISA kit (BioLegend, Cat. No. 430807), and an IL-8 ELISA kit (MyBioSource, Cat. No. MBS261967) in accordance with the manufacturer's instructions.
(§1) The data thus obtained were analyzed according to the method described in section 1 of “General Procedures”.

[2] = test system: monosodium iodoacetate (MIA)-induced osteoarthritis (OA), right knee joint; test: Diameter of right knee joint in MIA-induced OA rats; type: in vivo, Sprague Dawley rats; details: 30 μL intraarticular on day 3 and day 14, measured end of day 28 with caliper, FIG. 1
Description: A. Preparation of mixture containing EGF, CS, and HA EGF, CS, and HA were mixed in a weight ratio of 1:100:1000 in sterile water, so as to obtain a mixture containing EGF (20 μg/g), CS, and HA.
Male Sprague Dawley rats (6 weeks old, with a body weight of approximately 200 to 300 g) used in the following experiments were purchased from National Laboratory Animal Center, Taipei City, Taiwan. All the experimental mice were housed in an animal room under the following laboratory conditions: an alternating 12-hour light and 12-hour dark cycle, a temperature maintained at 21° C. to 24° C., and a relative humidity maintained at 45% to 70%. Furthermore, water and feed were provided ad libitum for all the experimental mice. All experimental procedures involving the experimental mice were in compliance with the legal provision of the Institutional Animal Care and Use Committee of National Chung Hsing University, Taiwan, and were carried out according to the Guide for the Care and Use of Laboratory Animals of National Institutes of Health (NIH).
The Sprague Dawley rats were divided into five groups, including one normal control group, one pathological control group, one comparative group, and two experimental groups (i.e., experimental groups 1 to 2) (n=5 rats in each group). […]
as §1

Row | Substance | content of IL-1β ([1]; FIG. 8) | content of IL-6 ([1]; FIG. 8) | content of TNF-α ([1]; FIG. 8) | content of IFN-γ ([1]; FIG. 9) | content of IL-8 ([1]; FIG. 9) | content of IL-17A ([1]; FIG. 9) | diameter of the right knee joint [2]
1 | EGF: Epidermal growth factor (Cat. No. 02-108, Joycom Bio-chem) dissolved in PBS, 20 μg/g EGF; given to experimental group 1 (NSDSECPLSHDGYCLHDGVCMYIEALDKYACNCVVGYIGERCQYRDLKWWELR; UniProt P01133 971-1023, looked up) | apparently or significantly lower than those determined in the pathological control group | apparently or significantly lower than those determined in the pathological control group | apparently or significantly lower than those determined in the pathological control group | apparently or significantly lower than those determined in the pathological control group | apparently or significantly lower than those determined in the pathological control group | apparently or significantly lower than those determined in the pathological control group | lower than that determined in the pathological control group
2 | hyaluronic acid [HA, reference compound] | – | – | – | – | – | – | lower than that determined in the pathological control group

— patent publication US20230149510A1, “METHOD FOR ALLEVIATING ARTHRITIS USING EPIDERMAL GROWTH FACTOR” (Lovin BioMed Co., Ltd., priority 2021, published 2023)
